Reference: paper PMC9326880 (Journal of Food and Drug Analysis, 2017)
Where two headings read alike, the source gives them in different places.

Legend:
P-gp [1] = biological target: T1, P-gp (Homo sapiens, UniProt P08183)
P-gp [2] = biological target: T1, P-gp; remark: listed apart in the source

T1 sequence (P08183 whole entry): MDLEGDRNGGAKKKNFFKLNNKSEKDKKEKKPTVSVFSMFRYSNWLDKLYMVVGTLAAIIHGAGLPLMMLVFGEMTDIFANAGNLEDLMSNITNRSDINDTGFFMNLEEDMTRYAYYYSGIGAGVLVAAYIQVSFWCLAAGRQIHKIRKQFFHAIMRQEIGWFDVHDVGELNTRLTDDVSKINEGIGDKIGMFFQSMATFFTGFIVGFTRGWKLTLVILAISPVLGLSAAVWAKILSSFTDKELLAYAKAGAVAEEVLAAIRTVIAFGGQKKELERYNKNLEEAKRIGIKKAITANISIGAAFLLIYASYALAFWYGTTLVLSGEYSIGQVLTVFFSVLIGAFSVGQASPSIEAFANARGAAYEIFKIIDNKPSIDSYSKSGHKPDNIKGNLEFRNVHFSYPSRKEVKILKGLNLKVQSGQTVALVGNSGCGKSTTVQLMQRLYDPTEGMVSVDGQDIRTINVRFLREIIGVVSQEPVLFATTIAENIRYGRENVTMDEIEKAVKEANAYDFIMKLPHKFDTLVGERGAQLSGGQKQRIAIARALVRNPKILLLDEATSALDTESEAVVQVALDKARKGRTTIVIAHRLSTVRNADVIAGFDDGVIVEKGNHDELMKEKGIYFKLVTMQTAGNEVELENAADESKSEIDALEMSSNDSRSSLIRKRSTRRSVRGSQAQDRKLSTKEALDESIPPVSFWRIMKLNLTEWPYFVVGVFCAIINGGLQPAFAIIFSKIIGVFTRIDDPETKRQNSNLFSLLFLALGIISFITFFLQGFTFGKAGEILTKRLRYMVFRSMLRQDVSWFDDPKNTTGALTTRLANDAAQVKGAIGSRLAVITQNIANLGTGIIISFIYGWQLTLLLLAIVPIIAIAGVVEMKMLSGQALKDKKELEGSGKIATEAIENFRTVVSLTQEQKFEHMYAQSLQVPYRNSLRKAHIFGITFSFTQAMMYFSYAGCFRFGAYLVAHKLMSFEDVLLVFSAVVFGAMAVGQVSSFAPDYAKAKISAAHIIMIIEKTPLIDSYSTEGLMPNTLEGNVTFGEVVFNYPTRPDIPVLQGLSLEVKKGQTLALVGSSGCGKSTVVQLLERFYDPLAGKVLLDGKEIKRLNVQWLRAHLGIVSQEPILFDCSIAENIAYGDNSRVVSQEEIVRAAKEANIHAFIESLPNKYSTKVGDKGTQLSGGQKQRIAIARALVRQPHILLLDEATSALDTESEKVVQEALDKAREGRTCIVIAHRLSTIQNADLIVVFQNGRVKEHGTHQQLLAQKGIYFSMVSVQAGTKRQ

Row | Structure (SMILES) | Influence on viability of LS 180 cells (MTT) (LS 180 cells) | Decrease of intracellular accumulation of rhodamine 123 (P-gp [1]) [%] | Decrease of intracellular accumulation of rhodamine 123 (P-gp [2]) | Enhancement of intracellular accumulation of rhodamine 123 (P-gp [2]) [%]
1 | CO[C@H]1/C=C/O[C@@]2(C)Oc3c(C)c(O)c4c(O)c(c(/C=N/N5CCN(C)CC5)c(O)c4c3C2=O)NC(=O)/C(C)=C\C=C\[C@H](C)[C@H](O)[C@@H](C)[C@@H](O)[C@@H](C)[C@H](OC(C)=O)[C@@H]1C [rifampin, Rifampin] | no toxic influences | 22.7 |  | 
2 | COc1cc2c(cc1OC)-c1cc3ccc(OC)c(OC)c3c[n+]1CC2 [palmatine, Palmatine] | no toxic influences |  | 16–18% | 
3 | COc1ccc2cc3[n+](cc2c1OC)CCc1cc2c(cc1-3)OCO2 [berberine, Berberine] | no toxic influences |  | 24–39% | 
4 | COc1ccc(CCN(C)CCCC(C#N)(c2ccc(OC)c(OC)c2)C(C)C)cc1OC (stereo not shown) [verapamil] | no toxic influences |  |  | 32.5
5 | c1c2c(cc3c1OCO3)-c1cc3ccc4c(c3c[n+]1CC2)OCO4 [coptisine, Coptisine] | no toxic influences |  | 24–39% | 
